As usually defined, the Ki is a dissociation constant, usually derived from enzyme kinetics or from competition with a known ligand. In general, EC50 refers to the midpoint of the concentration-response curve.

Numbered stars: 1 amine (or outer) side, 2 acyl side, 3 side chain; on linkers, the order of the positions; unused ones are H or OH. Square brackets hold non-standard residues; d marks the D form. Side chains are listed from the residue outwards. Peptide text beside a SMILES is read from it. * marks the point of attachment. C20 diacid = O=C(O)CCCCCCCCCCCCCCCCCCC(=O)*; αMePhe(2-F) = C[C@](N)(Cc1ccccc1F)C(=O)O; γGlu = O=C(O)[C@H](CCC(=O)[*:2])N[*:1]; αMeF = C[C@](N)(Cc1ccccc1)C(=O)O; αMeL = CC(C)C[C@](C)(N)C(=O)O; AEEA = NCCOCCOCC(=O)O; Aib = CC(C)(N)C(=O)O

These results are taken from patent publication US12252524B2, “GIP/GLP1 co-agonist compounds” (Eli Lilly and Company, priority 2018, dated 2025).

The target in one experiment is human GLP-1R (Homo sapiens, UniProt P43220). The experiment in a line: [125I]-GLP-1 binding (SPA), human GLP-1 receptor. The arrangement: expressed in transfected cells; crude membranes. Conditions: read-out: hGLP1R Ki, (nM) (SEM, n). An outline of the steps:
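Assay buffer: HEPES 25 mM, pH 7.4, CaCl2 2.5 mM, MgCl2 1 mM, with EDTA-free protease inhibitors. Receptor came from crude cell membranes prepared by homogenization and centrifugation at 4° C. IC50s came from four-parameter fits (maximum, minimum, IC50, Hill slope) and were expressed as Ki geometric means with SEM.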

The target of experiment [1] is T1, gastric inhibitory peptide receptor (GIPR) (Homo sapiens, UniProt P48546).
T1 sequence (P48546 22-466): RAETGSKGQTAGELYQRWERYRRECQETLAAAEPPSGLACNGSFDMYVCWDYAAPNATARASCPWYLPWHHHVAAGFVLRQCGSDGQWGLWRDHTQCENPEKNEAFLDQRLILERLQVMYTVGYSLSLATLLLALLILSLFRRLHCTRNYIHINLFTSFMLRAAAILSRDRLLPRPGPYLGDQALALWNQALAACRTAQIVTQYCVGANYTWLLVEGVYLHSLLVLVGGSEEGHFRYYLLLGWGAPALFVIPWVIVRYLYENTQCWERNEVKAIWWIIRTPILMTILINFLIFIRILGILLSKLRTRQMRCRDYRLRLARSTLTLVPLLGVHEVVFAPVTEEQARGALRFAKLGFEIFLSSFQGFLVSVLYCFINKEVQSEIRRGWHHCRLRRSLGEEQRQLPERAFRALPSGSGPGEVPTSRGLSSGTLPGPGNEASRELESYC
Kind of experiment: cAMP pharmacological functional assay in presence of casein, hGIPR. The experiment is classed as cell-based. Conditions: HEK293 cells expressing hGIPR, 0.1% Casein, geometric mean; read-out: hGIPR cAMP Rel EC50 nM (SEM, n).

Experiment [2] has as its target human GLP-1 receptor (GLP-1R) (Homo sapiens, UniProt P43220). Kind of experiment: cAMP pharmacological functional assay in presence of casein, hGLP-1R. Conditions: HEK293 cells expressing hGLP-1R, 0.1% Casein, geometric mean; read-out: hGLP1R cAMP Rel EC50 nM (SEM, n). In kind it is cell-based.
The target of a further experiment is T2, human GIP receptor (Homo sapiens, UniProt P48546).
T2 construct: expressed in transfected cells; crude membranes
T2 sequence (P48546 22-466): T1 sequence (P48546 22-466)
The experiment in a line: [125I]-GIP binding (SPA), human GIP receptor. The settings on record: read-out: hGIPR Ki, nM (SEM, n).

Another experiment deals with T3, human Gcg receptor (Homo sapiens, UniProt P47871).
T3 construct: expressed in transfected cells; crude membranes
T3 sequence (P47871 26-477): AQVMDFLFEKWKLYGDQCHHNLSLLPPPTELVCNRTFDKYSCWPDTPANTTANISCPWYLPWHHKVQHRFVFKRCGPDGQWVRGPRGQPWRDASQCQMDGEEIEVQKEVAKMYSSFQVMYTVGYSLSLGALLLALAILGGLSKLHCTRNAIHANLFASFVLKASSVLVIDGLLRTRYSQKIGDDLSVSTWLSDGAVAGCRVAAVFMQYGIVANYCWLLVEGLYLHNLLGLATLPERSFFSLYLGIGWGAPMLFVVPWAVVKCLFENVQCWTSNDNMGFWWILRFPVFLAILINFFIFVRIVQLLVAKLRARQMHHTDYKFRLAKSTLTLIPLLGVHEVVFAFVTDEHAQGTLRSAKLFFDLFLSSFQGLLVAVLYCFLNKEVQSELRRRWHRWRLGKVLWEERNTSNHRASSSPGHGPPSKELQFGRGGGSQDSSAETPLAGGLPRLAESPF
The experiment in a line: [125I]-Glucagon binding (SPA), human Gcg receptor. The settings on record: read-out: hGLcgR Ki, nM (SEM, n). An outline of the steps:
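Scintillation counts are taken after membranes and WGA beads incubate and settle for 12 hours at room temperature. Buffer is 25 mM HEPES, pH 7.4, with CaCl2, MgCl2, bacitracin and Tween-20. Ki values, from four-parameter IC50 fits, are geometric means over independent days.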

Sequence of human GLP-1R (P43220 24-463): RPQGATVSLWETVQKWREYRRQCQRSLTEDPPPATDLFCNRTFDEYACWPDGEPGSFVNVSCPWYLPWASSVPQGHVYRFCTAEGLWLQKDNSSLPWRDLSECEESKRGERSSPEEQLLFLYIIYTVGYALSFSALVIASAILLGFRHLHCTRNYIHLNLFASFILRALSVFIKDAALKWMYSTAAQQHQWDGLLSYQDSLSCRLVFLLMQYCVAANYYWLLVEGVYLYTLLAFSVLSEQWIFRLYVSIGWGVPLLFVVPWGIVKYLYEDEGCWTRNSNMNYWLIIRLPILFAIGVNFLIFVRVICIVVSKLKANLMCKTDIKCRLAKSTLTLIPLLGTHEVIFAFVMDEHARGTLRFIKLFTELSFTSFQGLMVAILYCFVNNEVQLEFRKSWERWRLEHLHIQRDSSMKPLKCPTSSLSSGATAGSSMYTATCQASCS
Sequence of human GLP-1 receptor (GLP-1R) (P43220 24-463): as above

On to `CC[C@H](C)[C@H](NC(=O)[C@H](CC(C)C)NC(=O)[C@H](Cc1ccc(O)cc1)NC(=O)[C@@H](CCC(=O)O)NC(=O)[C@@H](NC(=O)[C@H](Cc1ccccc1)NC(=O)[C@H](CCC(=O)O)NC(=O)C(C)(C)NC(=O)[C@H](CCC(N)=O)NC(=O)[C@H](C)NC(=O)[C@H](CCCCNC(=O)COCCOCCNC(=O)COCCOCCNC(=O)CC[C@H](NC(=O)CCCCCCCCCCCCCCCCCCC(=O)O)C(=O)O)NC(=O)[C@H](CCC(=O)O)NC(=O)[C@H](CC(=O)O)NC(=O)[C@H](CC(C)C)NC(=O)[C@](C)(CC(C)C)NC(=O)[C@@H](NC(=O)[C@H](CO)NC(=O)[C@H](C)NC(=O)[C@H](CC(=O)O)NC(=O)[C@H](CO)NC(=O)[C@@H](NC(=O)[C@](C)(Cc1ccccc1F)NC(=O)[C@@H](NC(=O)CNC(=O)[C@H](CCC(=O)O)NC(=O)C(C)(C)NC(=O)[C@@H](N)Cc1ccc(O)cc1)[C@@H](C)O)[C@@H](C)O)[C@@H](C)CC)[C@@H](C)CC)C(=O)N[C@@H](CCC(=O)O)C(=O)NCC(=O)NCC(=O)N1CCC[C@H]1C(=O)N[C@@H](CO)C(=O)N[C@@H](CO)C(=O)NCC(=O)N[C@@H](C)C(=O)N1CCC[C@H]1C(=O)N1CCC[C@H]1C(=O)N1CCC[C@H]1C(=O)N[C@@H](CO)C(N)=O` [Example 192] (H-Y[Aib]EGT[αMePhe(2-F)]TSDASI[αMeL]LDEK([AEEA-AEEA-γGlu-C20 diacid])AQ[Aib]EFI[dE]YLIEGGPSSGAPPPS-NH2; N-terminus assumed), for which the Ki was 2.89 nM at human GLP-1R, 0.118 nM at human GIP receptor and > 1110 nM on human Gcg receptor. Further, the results for the EC50 in experiment [1] and in experiment [2] were 0.0615 nM and 0.0289 nM, respectively.

As to `CC[C@H](C)[C@H](NC(=O)[C@H](CC(C)C)NC(=O)[C@H](Cc1ccc(O)cc1)NC(=O)[C@@H](CCC(=O)O)NC(=O)[C@@H](NC(=O)[C@H](Cc1ccccc1)NC(=O)[C@H](CCC(=O)O)NC(=O)C(C)(C)NC(=O)[C@H](CCC(N)=O)NC(=O)[C@H](C)NC(=O)[C@H](CCCCNC(=O)COCCOCCNC(=O)COCCOCCNC(=O)CC[C@H](NC(=O)CCCCCCCCCCCCCCCCCCC(=O)O)C(=O)O)NC(=O)[C@H](CCC(=O)O)NC(=O)[C@H](CC(=O)O)NC(=O)[C@H](CC(C)C)NC(=O)[C@](C)(CC(C)C)NC(=O)[C@@H](NC(=O)[C@H](CO)NC(=O)[C@H](Cc1ccc(O)cc1)NC(=O)[C@H](CC(=O)O)NC(=O)[C@H](CO)NC(=O)[C@@H](NC(=O)[C@](C)(Cc1ccccc1)NC(=O)[C@@H](NC(=O)CNC(=O)[C@H](CCC(=O)O)NC(=O)C(C)(C)NC(=O)[C@@H](N)Cc1ccc(O)cc1)[C@@H](C)O)[C@@H](C)O)[C@@H](C)CC)[C@@H](C)CC)C(=O)N[C@@H](CCC(=O)O)C(=O)NCC(=O)NCC(=O)N1CCC[C@H]1C(=O)N[C@@H](CO)C(=O)N[C@@H](CO)C(=O)NCC(=O)N[C@@H](C)C(=O)N1CCC[C@H]1C(=O)N1CCC[C@H]1C(=O)N1CCC[C@H]1C(=O)N[C@@H](CO)C(N)=O` [Example 227] (H-Y[Aib]EGT[αMeF]TSDYSI[αMeL]LDEK([AEEA-AEEA-γGlu-C20 diacid])AQ[Aib]EFI[dE]YLIEGGPSSGAPPPS-NH2), the Ki turned out to be 2.01 nM on human GLP-1R, 0.0146 nM on human GIP receptor and 113 nM on human Gcg receptor. Moreover, the EC50 in experiment [1] came out at 0.0414 nM; in experiment [2] it was 0.0329 nM.

Turning to `CC[C@H](C)[C@H](NC(=O)[C@H](CCCCN)NC(=O)[C@H](CC(=O)O)NC(=O)[C@H](CC(C)C)NC(=O)[C@H](CC(C)C)NC(=O)[C@@H](NC(=O)[C@H](CO)NC(=O)[C@H](Cc1ccc(O)cc1)NC(=O)[C@H](CC(=O)O)NC(=O)[C@H](CO)NC(=O)[C@@H](NC(=O)[C@H](Cc1ccccc1)NC(=O)[C@@H](NC(=O)CNC(=O)[C@H](CCC(=O)O)NC(=O)C(C)(C)NC(=O)[C@@H](N)Cc1ccc(O)cc1)[C@@H](C)O)[C@@H](C)O)[C@@H](C)CC)C(=O)N[C@@H](C)C(=O)N[C@@H](CCC(N)=O)C(=O)NC(C)(C)C(=O)N[C@@H](C)C(=O)N[C@@H](Cc1ccccc1)C(=O)N[C@H](C(=O)N[C@@H](CCC(=O)O)C(=O)N[C@@H](Cc1ccc(O)cc1)C(=O)N[C@@H](CC(C)C)C(=O)N[C@H](C(=O)N[C@@H](CCC(=O)O)C(=O)N[C@@H](CCCCNC(=O)COCCOCCNC(=O)COCCOCCNC(=O)CC[C@H](NC(=O)CCCCCCCCCCCCCCCCCCC(=O)O)C(=O)O)C(=O)NCC(=O)N1CCC[C@H]1C(=O)N[C@@H](CO)C(=O)N[C@@H](CO)C(=O)NCC(=O)N[C@@H](C)C(=O)N1CCC[C@H]1C(=O)N1CCC[C@H]1C(=O)N1CCC[C@H]1C(=O)N[C@@H](CO)C(N)=O)[C@@H](C)CC)[C@@H](C)CC` [Example 38] (H-Y[Aib]EGTFTSDYSILLDKIAQ[Aib]AFIEYLIEK([AEEA-AEEA-γGlu-C20 diacid])GPSSGAPPPS-NH2), the values for the Ki on human GLP-1R, on human GIP receptor and at human Gcg receptor were 31.3 nM, 0.104 nM and > 974 nM, respectively. Further, the EC50 in experiment [1] is 0.147 nM; in experiment [2] it was 2.82 nM.

Turning to `CC[C@H](C)[C@H](NC(=O)[C@H](CC(C)C)NC(=O)[C@H](Cc1ccc(O)cc1)NC(=O)[C@H](CCC(=O)O)NC(=O)[C@@H](NC(=O)[C@H](Cc1ccccc1)NC(=O)[C@H](CCC(=O)O)NC(=O)C(C)(C)NC(=O)[C@H](CCC(N)=O)NC(=O)[C@H](C)NC(=O)[C@H](CCCCNC(=O)COCCOCCNC(=O)COCCOCCNC(=O)CC[C@H](NC(=O)CCCCCCCCCCCCCCCCCCC(=O)O)C(=O)O)NC(=O)[C@H](CCC(=O)O)NC(=O)[C@H](CC(=O)O)NC(=O)[C@H](CC(C)C)NC(=O)[C@](C)(CC(C)C)NC(=O)[C@@H](NC(=O)[C@H](CO)NC(=O)[C@H](Cc1ccc(O)cc1)NC(=O)[C@H](CC(=O)O)NC(=O)[C@H](CO)NC(=O)[C@@H](NC(=O)[C@](C)(Cc1ccccc1)NC(=O)[C@@H](NC(=O)CNC(=O)[C@H](CCC(=O)O)NC(=O)C(C)(C)NC(=O)[C@@H](N)Cc1ccc(O)cc1)[C@@H](C)O)[C@@H](C)O)[C@@H](C)CC)[C@@H](C)CC)C(=O)N[C@@H](CCC(=O)O)C(=O)NCC(=O)NCC(=O)N1CCC[C@H]1C(=O)N[C@@H](CO)C(=O)N[C@@H](CO)C(=O)NCC(N)=O` [Example 124] (H-Y[Aib]EGT[αMeF]TSDYSI[αMeL]LDEK([AEEA-AEEA-γGlu-C20 diacid])AQ[Aib]EFIEYLIEGGPSSG-NH2), the Ki on human GLP-1R worked out at 4.87 nM; at human GIP receptor, 0.0424 nM; at human Gcg receptor, 41.5 nM. The values for the EC50 in experiment [1] and in experiment [2] were 0.0762 nM and 0.0475 nM, respectively.
